{"source": "paper PMC9142968", "about": "“Nitro-Group-Containing Thiopeptide Derivatives as Promising Agents to Target Clostridioides difficile” (Pharmaceuticals, 2022)", "key": {"[1]": {"assay": "Plasma stability", "format": "in vitro ADME", "conditions": "human plasma, 30 min; read-out: PS % Remaining (30 min)", "experimental": "No significant metabolic liabilities were noted. Incubation of AJ-024 for 30 min with human liver microsomes and with human plasma proteins returned 63.8% and 95.9% of unchanged compound, respectively."}, "[2]": {"assay": "in vitro", "conditions": "human, plasma"}, "[3]": {"tested_on": "A. baumannii", "assay": "MIC against Gram-positive/Gram-negative panel", "format": "cell-based", "conditions": "Acinetobacter baumannii, ATCC17904"}, "[4]": {"tested_on": "S. aureus", "assay": "MIC against Gram-positive/Gram-negative panel", "format": "cell-based", "conditions": "Staphylococcus aureus"}, "[5]": {"tested_on": "E. faecalis", "assay": "MIC against Gram-positive/Gram-negative panel", "format": "cell-based", "conditions": "Enterococcus faecalis"}, "[6]": {"tested_on": "E. faecium", "assay": "MIC against Gram-positive/Gram-negative panel", "format": "cell-based", "conditions": "Enterococcus faecium"}, "[7]": {"tested_on": "E. coli", "assay": "MIC against Gram-positive/Gram-negative panel", "format": "cell-based", "conditions": "Escherichia coli, ATCC25922"}, "[8]": {"tested_on": "P. aeruginosa", "assay": "MIC against Gram-positive/Gram-negative panel", "format": "cell-based", "conditions": "Pseudomonas aeruginosa, ATCC27853"}, "[9]": {"tested_on": "K. pneumoniae", "assay": "MIC against Gram-positive/Gram-negative panel", "format": "cell-based", "conditions": "Klebsiella pneumoniae, ATCC10031"}, "[10]": {"tested_on": "C. difficile clinical isolates", "assay": "MIC by agar dilution, classified C. difficile clinical isolates (South Korea)", "format": "cell-based, Clostridioides difficile"}, "[11]": {"tested_on": "C. difficile ribotype 027", "assay": "Time-kill assay", "format": "cell-based, Clostridioides difficile", "conditions": "C. difficile ribotype 027, at 1×, 2× and 4× MIC; bactericidal = ≥3 log10 CFU/mL reduction vs starting inoculum", "experimental": "The time-kill studies were performed by the CLSI method. […] Vancomycin was diluted in distilled water and AJ-024 was diluted in 1% (v/v) DMSO. […] Samples were removed at 0, 3, 6, and 24 h post inoculation, and serial 10-fold dilutions were performed. The number of viable cells were determined on BHI agar containing 0.5% yeast extract and 5% defibrinated sheep blood after 24 h of incubation. The plates were incubated at 37 ℃ in an anaerobic chamber. Antimicrobials were considered bactericidal at the lowest concentration that reduced the original inoculum by 3 log 10 CFU/mL at each of the time periods and bacteriostatic if the inoculum was reduced by 0 to 3 log 10 CFU/mL."}, "[12]": {"tested_on": "C. difficile ribotype 027", "assay": "Mouse IBD-C. difficile comorbidity infection model", "format": "in vivo", "conditions": "mice, DSS-induced IBD + C. difficile ribotype 027, 30 mg/kg once daily oral gavage, observed period of 15 days", "experimental": "C. difficile ribotype 027 was grown on blood agar plate and incubated for two days at 37 ℃ in an anaerobic chamber and sub-cultured on 70:30 sporulation medium to facilitate the sporulation of C. difficile ribotype 027. Briefly, the sporulation medium consists of 70% SMC (Bacto peptone 90 g, protease peptone 5 g, NH4SO4 1 g, tris base 1.5 g, agar 15 g per liter) and 30% BHIS (BHI agar with 0.5% yeast extract) agar. For inoculation, bacterial colonies were suspended in 0.9% saline solution and further diluted with saline solutions to adjust OD (Optical Density) 1.0 at 1/10 of original saline solutions. Groups of five male C57BL/6J mice were injected orally with a single 0.5 mL dose of the bacterial suspension.\nAll animal experiments were conducted in accordance with the ethical guidelines of the Ethics Review Committee for Animal Experimentation at Handong Global University (Republic of Korea, protocol #HGU-20211214-20). C57BL/6J male (4-week-old male weighing 20 to 22 g, Daehan Bio Link Co., Ltd., Eumseong, Korea) 5 mouse per group was used in C. difficile infection model. Mice were maintained in animal chambers kept at 23 ± 2 ℃ with 55% ± 20% relative humidity. An amount of 2% dextran sodium sulfate (DSS, MP biomedical, Irvine, CA, USA) was inoculated by drinking water for 5 days to cause colitis in mice. […]"}, "[13]": {"tested_on": "C. difficile", "assay": "MIC by agar dilution, representative C. difficile strains", "format": "cell-based", "conditions": "Clostridioides difficile"}, "[14]": {"tested_on": "C. difficile", "conditions": "treatment of CDI; background statement of the introduction; cited from earlier work"}, "[15]": {"biological_target": "CYP2C19 (Homo sapiens, UniProt P33261)", "sequence (P33261 whole entry)": "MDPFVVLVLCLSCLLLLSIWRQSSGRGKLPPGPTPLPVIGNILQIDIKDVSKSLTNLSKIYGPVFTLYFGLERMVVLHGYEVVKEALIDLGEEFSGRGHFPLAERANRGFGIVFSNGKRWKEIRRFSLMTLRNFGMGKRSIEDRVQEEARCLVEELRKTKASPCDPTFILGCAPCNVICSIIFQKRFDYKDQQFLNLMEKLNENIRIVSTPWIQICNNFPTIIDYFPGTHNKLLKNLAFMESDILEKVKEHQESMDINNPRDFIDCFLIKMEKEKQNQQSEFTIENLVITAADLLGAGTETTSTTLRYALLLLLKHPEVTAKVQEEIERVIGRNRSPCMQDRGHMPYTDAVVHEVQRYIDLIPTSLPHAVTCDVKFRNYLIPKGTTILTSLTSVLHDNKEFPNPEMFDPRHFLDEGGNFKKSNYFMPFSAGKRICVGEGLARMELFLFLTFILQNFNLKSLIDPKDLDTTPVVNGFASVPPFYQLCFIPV", "assay": "Inhibition of CYP enzyme activity (S-mephenytoin probe)", "conditions": "test compound 10 uM; activity expressed as percentage of control"}, "[16]": {"conditions": "A. baumannii ATCC 17904, read-out: MIC"}, "[17]": {"conditions": "ATCC25923, S. aureus ATCC 25923, read-out: MIC"}, "[18]": {"conditions": "ATCC43300, S. aureus ATCC 43300, read-out: MIC"}, "[19]": {"conditions": "S. aureus clinical isolate, read-out: MIC"}, "[20]": {"conditions": "ATCC29212, E. faecalis ATCC 29212, read-out: MIC"}, "[21]": {"conditions": "E. faecalis clinical isolate, read-out: MIC"}, "[22]": {"conditions": "ATCC19434, E. faecium ATCC 19434, read-out: MIC"}, "[23]": {"conditions": "E. faecium clinical isolate, read-out: MIC"}, "[24]": {"conditions": "E. coli ATCC 25922, read-out: MIC"}, "[25]": {"conditions": "P. aeruginosa ATCC 27853, read-out: MIC"}, "[26]": {"conditions": "K. pneumoniae ATCC 10031, read-out: MIC"}}, "note": "Like-named read-outs stand apart in the source and are kept apart here.", "data": [{"smiles": "CCOC(=O)[C@H](CCc1ccccc1)N[C@@H](C)C(=O)N1CCC[C@H]1C(=O)O", "note": "[Enalapril]", "values": [{"measurement": "remaining at 0.5 h", "setting": "[1]", "value": 95.2, "unit": "%"}]}, {"smiles": "C[C@@H]1C[C@H]2[C@@H]3CCC4=CC(=O)C=C[C@]4(C)[C@@]3(F)[C@@H](O)C[C@]2(C)[C@@]1(O)C(=O)CO", "note": "[Dexamethasone, reference compound]", "values": [{"measurement": "fraction unbound at 4 h, 10 μM", "setting": "[2]", "value": 0.212}]}, {"smiles": "CC=C(NC(=O)c1csc(-c2csc(-c3ccc4c(n3)-c3csc(n3)C(C(C)O)NC(=O)c3csc(n3)C(C(C)C)NC(=O)c3csc(n3)C(=CC)NC(=O)C(C(C)O)NC(=O)c3csc-4n3)n2)n1)C(=O)NCCn1c([N+](=O)[O-])cnc1C", "note": "(centres unmarked) [AJ-024]", "values": [{"measurement": "MIC", "setting": "[3]; [16]", "value": "> 32", "unit": "µg/mL"}, {"measurement": "MIC", "setting": "[4]; [17]", "value": 0.25, "unit": "µg/mL"}, {"measurement": "MIC", "setting": "[4]; [18]", "value": 0.25, "unit": "µg/mL"}, {"measurement": "MIC", "setting": "[4]; [19]", "value": 0.5, "unit": "µg/mL"}, {"measurement": "MIC", "setting": "[5]; [20]", "value": 0.25, "unit": "µg/mL"}, {"measurement": "MIC", "setting": "[5]; [21]", "value": 0.25, "unit": "µg/mL"}, {"measurement": "MIC", "setting": "[6]; [22]", "value": 0.25, "unit": "µg/mL"}, {"measurement": "MIC", "setting": "[6]; [23]", "value": 0.5, "unit": "µg/mL"}, {"measurement": "MIC", "setting": "[7]; [24]", "value": "> 32", "unit": "µg/mL"}, {"measurement": "MIC", "setting": "[8]; [25]", "value": "> 32", "unit": "µg/mL"}, {"measurement": "MIC", "setting": "[9]; [26]", "value": "> 32", "unit": "µg/mL"}]}, {"smiles": "CN[C@H](CC(C)C)C(=O)N[C@H]1C(=O)N[C@@H](CC(N)=O)C(=O)N[C@H]2C(=O)N[C@H]3C(=O)N[C@H](C(=O)N[C@H](C(=O)O)c4cc(O)cc(O)c4-c4cc3ccc4O)[C@H](O)c3ccc(c(Cl)c3)Oc3cc2cc(c3O[C@@H]2O[C@H](CO)[C@@H](O)[C@H](O)[C@H]2O[C@H]2C[C@](C)(N)[C@H](O)[C@H](C)O2)Oc2ccc(cc2Cl)[C@H]1O", "note": "[Vancomycin]", "values": [{"measurement": "MIC range", "setting": "[10]", "value": "0.5 to 2", "unit": "µg/mL"}, {"measurement": "MIC50", "setting": "[10]; Clostridioides difficile", "value": 1, "unit": "µg/mL"}, {"measurement": "MIC", "setting": "[3]", "value": "> 32", "unit": "µg/mL"}, {"measurement": "MIC", "setting": "[4]", "value": "> 32", "unit": "µg/mL"}, {"measurement": "MIC", "setting": "[4]; ATCC25923", "value": 0.5, "unit": "µg/mL"}, {"measurement": "MIC", "setting": "[4]; ATCC43300", "value": 0.5, "unit": "µg/mL"}, {"measurement": "MIC", "setting": "[5]", "value": "> 32", "unit": "µg/mL"}, {"measurement": "MIC", "setting": "[5]; ATCC29212", "value": 0.5, "unit": "µg/mL"}, {"measurement": "MIC", "setting": "[6]", "value": "> 32", "unit": "µg/mL"}, {"measurement": "MIC", "setting": "[6]; ATCC19434", "value": 1, "unit": "µg/mL"}, {"measurement": "MIC", "setting": "[7]", "value": "> 32", "unit": "µg/mL"}, {"measurement": "Killing activity (bactericidal / bacteriostatic)", "setting": "[11]", "value": "bacteriostatic"}, {"measurement": "MIC", "setting": "[8]", "value": "> 32", "unit": "µg/mL"}, {"measurement": "Survival rate", "setting": "[12]", "value": 80, "unit": "%"}, {"measurement": "MIC", "setting": "[13]; ATCC9689", "value": 1, "unit": "µg/mL"}, {"measurement": "MIC", "setting": "[13]; ATCC17858", "value": 1, "unit": "µg/mL"}, {"measurement": "MIC", "setting": "[13]; ATCC43255", "value": 1, "unit": "µg/mL"}, {"measurement": "MIC", "setting": "[13]; ATCC51695", "value": 1, "unit": "µg/mL"}, {"measurement": "MIC", "setting": "[13]; ATCCBAA1871", "value": 1, "unit": "µg/mL"}, {"measurement": "Rate of relapse", "setting": "[14]", "value": "25% to 30%"}, {"measurement": "MIC", "setting": "[9]", "value": "> 32", "unit": "µg/mL"}]}, {"smiles": "CC(=O)NC[C@H]1CN(c2ccc(N3CCOCC3)c(F)c2)C(=O)O1", "note": "[LIZ, Linezolid]", "values": [{"measurement": "MIC", "setting": "[3]; [16]", "value": "> 32", "unit": "µg/mL"}, {"measurement": "MIC", "setting": "[4]; [17]", "value": 2, "unit": "µg/mL"}, {"measurement": "MIC", "setting": "[4]; [18]", "value": 2, "unit": "µg/mL"}, {"measurement": "MIC", "setting": "[4]; [19]", "value": 1, "unit": "µg/mL"}, {"measurement": "MIC", "setting": "[5]; [20]", "value": 2, "unit": "µg/mL"}, {"measurement": "MIC", "setting": "[5]; [21]", "value": 4, "unit": "µg/mL"}, {"measurement": "MIC", "setting": "[6]; [22]", "value": 2, "unit": "µg/mL"}, {"measurement": "MIC", "setting": "[6]; [23]", "value": 2, "unit": "µg/mL"}, {"measurement": "MIC", "setting": "[7]; [24]", "value": "> 32", "unit": "µg/mL"}, {"measurement": "MIC", "setting": "[8]; [25]", "value": "> 32", "unit": "µg/mL"}, {"measurement": "MIC", "setting": "[9]; [26]", "value": "> 32", "unit": "µg/mL"}]}, {"smiles": "CCN(CC)CCOC(=O)c1ccc(N)cc1", "note": "[Procaine]", "values": [{"measurement": "remaining at 0.5 h", "setting": "[1]", "value": 1.4, "unit": "%"}]}, {"smiles": "CC(=O)N1CCN(c2ccc(OCC3COC(Cn4ccnc4)(c4ccc(Cl)cc4Cl)O3)cc2)CC1", "note": "(centres unmarked) [Ketoconazole, reference compound]", "values": [{"measurement": "CYP Inhibition 2C19", "setting": "[15]", "value": 97.6}]}]}
